Laboratory results as given in patent US20150105252A1, “SUBSTITUTED PYRAZOLES AS HERBICIDES” (E I DU PONT DE NEMOURS AND COMPANY, priority 2013, published 2015).

Key:
corn [1] = assay: Test A postemergence; format: in vivo, Zea mays; details: Postemergence
Summary of the method: (§1)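 Growth medium: loam soil blended with sand. Preemergence treatment used a directed soil spray right after planting; postemergence treatment targeted seedlings at one to two leaves (2–10 cm height). Response was judged by eye relative to untreated plants about 10 days later on a 0–100 control scale.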

morningglory [2] = assay: Test A preemergence; format: in vivo, Ipomoea spp.; details: preemergence; for Morningglory plant response rating (0 to 100 scale): 125 g ai/ha, visual injury approx. 10 days after treatment
Summary of the method: as §1

crabgrass, large [3] = assay: Test A postemergence; format: in vivo, Digitaria sanguinalis; details: Postemergence
Summary of the method: as §1

sedge, umbrella = assay: Test B flood; format: in vivo, Cyperus difformis; details: 250 g ai/ha, visual rating on 0 to 100 scale (0 no effect, 100 complete control), 13 to 15 days
Summary of the method: (§2)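 Each compound is applied to the floodwater of pots holding 2-leaf seedlings, water standing 3 cm over the soil throughout. Plants stay in a greenhouse 13 to 15 days before visual scoring against controls from 0 (no effect) to 100 (complete control).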

foxtail, giant [4] = assay: Test A preemergence; format: in vivo, Setaria faberii; details: preemergence; for Foxtail, Giant plant response rating (0 to 100 scale): 125 g ai/ha, visual injury approx. 10 days after treatment; for Foxtail, Giant plant response rating: 500 g ai/ha
Summary of the method: as §1

morningglory [5] = assay: Test A postemergence; format: in vivo, Ipomoea spp.; details: Postemergence
Summary of the method: as §1

velvetleaf [6] = assay: Test A postemergence; format: in vivo, Abutilon theophrasti; details: Postemergence
Summary of the method: as §1

corn [7] = assay: Test A preemergence; format: in vivo, Zea mays; details: preemergence; for Corn plant response rating (0 to 100 scale): 125 g ai/ha, visual injury approx. 10 days after treatment; for Corn plant response rating: 500 g ai/ha
Summary of the method: as §1

barnyardgrass [8] = assay: Test A postemergence; format: in vivo, Echinochloa crus-galli; details: Postemergence
Summary of the method: as §1

barnyardgrass [9] = assay: Test B flood; format: in vivo, Echinochloa crus-galli; details: 250 g ai/ha, visual rating on 0 to 100 scale (0 no effect, 100 complete control), 13 to 15 days
Summary of the method: as §2

wheat [10] = assay: Test A postemergence; format: in vivo, Triticum aestivum; details: Postemergence
Summary of the method: as §1

velvetleaf [11] = assay: Test A preemergence; format: in vivo, Abutilon theophrasti; details: preemergence; for Velvetleaf plant response rating (0 to 100 scale): 125 g ai/ha, visual injury approx. 10 days after treatment
Summary of the method: as §1

barnyardgrass [12] = assay: Test A preemergence; format: in vivo, Echinochloa crus-galli; details: preemergence; for Barnyardgrass plant response rating (0 to 100 scale, 0 is no effect, 100 is complete control): 125 g ai/ha, visual injury approx. 10 days after treatment; for Barnyardgrass plant response rating: 500 g ai/ha, 0 to 100 scale (0 no effect, 100 complete control)
Summary of the method: as §1

wheat [13] = assay: Test A preemergence; format: in vivo, Triticum aestivum; details: preemergence; for Wheat plant response rating (0 to 100 scale): 125 g ai/ha, visual injury approx. 10 days after treatment
Summary of the method: as §1

foxtail, giant [14] = assay: Test A postemergence; format: in vivo, Setaria faberii; details: Postemergence
Summary of the method: as §1

crabgrass, large [15] = assay: Test A preemergence; format: in vivo, Digitaria sanguinalis; details: preemergence; for Crabgrass, Large plant response rating (0 to 100 scale): 125 g ai/ha, visual injury approx. 10 days after treatment; for Crabgrass, Large plant response rating: 500 g ai/ha
Summary of the method: as §1

ducksalad = assay: Test B flood; format: in vivo, Heteranthera limosa; details: 250 g ai/ha, visual rating on 0 to 100 scale (0 no effect, 100 complete control), 13 to 15 days
Summary of the method: as §2

rice = assay: Test B flood; format: in vivo, Oryza sativa; details: 250 g ai/ha, visual rating on 0 to 100 scale (0 no effect, 100 complete control), 13 to 15 days
Summary of the method: as §2

pigweed [16] = assay: Test A postemergence; format: in vivo, Amaranthus retroflexus; details: Postemergence
Summary of the method: as §1

pigweed [17] = assay: Test A preemergence; format: in vivo, Amaranthus retroflexus; details: preemergence; for Pigweed plant response rating (0 to 100 scale): 125 g ai/ha, visual injury approx. 10 days after treatment
Summary of the method: as §1

[18] = 125 g ai/ha, 0 to 100 scale, 0 no effect, 100 complete control
[19] = 500 g ai/ha, 0 to 100 scale (0 no effect, 100 complete control)
[20] = visual injury after approx. 10 days, 0 to 100 scale (0 no effect, 100 complete control)
[21] = visual injury after approx. 10 days
[22] = 500 g ai/ha, visual injury, 0 to 100 scale, approx. 10 days
[23] = visual injury, 0 to 100 scale, approx. 10 days

Compound	Corn plant response rating (corn [1]; [18])	Corn plant response rating (corn [1]; [19])	Morningglory plant response rating (0 to 100 scale) (morningglory [2])	Crabgrass, Large plant response rating (crabgrass, large [3]; [18])	Crabgrass, Large plant response rating (crabgrass, large [3]; [19])	Plant response rating, Sedge, Umbrella (sedge, umbrella)	Foxtail, Giant plant response rating (0 to 100 scale) (foxtail, giant [4])	Morningglory plant response rating (morningglory [5]; [18])	Morningglory plant response rating (morningglory [5]; [19])	Velvetleaf plant response rating (velvetleaf [6]; [18])	Velvetleaf plant response rating (velvetleaf [6]; [19])	Corn plant response rating (0 to 100 scale) (corn [7])	Barnyardgrass plant response rating (barnyardgrass [8]; [18])	Barnyardgrass plant response rating (barnyardgrass [8]; [19])	Plant response rating, Barnyardgrass (barnyardgrass [9])	Wheat plant response rating (wheat [10]; [18])	Wheat plant response rating (wheat [10]; [19])	Velvetleaf plant response rating (0 to 100 scale) (velvetleaf [11])	Barnyardgrass plant response rating (0 to 100 scale, 0 is no effect, 100 is complete control) (barnyardgrass [12])	Wheat plant response rating (0 to 100 scale) (wheat [13])	further results
COCc1cc(C(=O)NCC(F)(F)F)nn1Cc1cc(C(F)(F)C(F)(F)F)nn1C [Compound 225]	10	30	30	40	70	50	20	10	60	20	30	0	10	30	0	0	0	0	10	0	Foxtail, Giant plant response rating (foxtail, giant [4]; [20]): 70; Corn plant response rating (corn [7]; [20]): 20; Barnyardgrass plant response rating (barnyardgrass [12]; [21]): 80; Foxtail, Giant plant response rating (foxtail, giant [14]; [18]): 10; Foxtail, Giant plant response rating (foxtail, giant [14]; [19]): 60; Crabgrass, Large plant response rating (0 to 100 scale) (crabgrass, large [15]): 20; Crabgrass, Large plant response rating (crabgrass, large [15]; [20]): 90; Plant response rating, Ducksalad (ducksalad): 55; Plant response rating, Rice (rice): 0; Pigweed plant response rating (pigweed [16]; [18]): 0; Pigweed plant response rating (pigweed [16]; [19]): 0; Pigweed plant response rating (0 to 100 scale) (pigweed [17]): 20
CCc1cc(C(=O)NCC(F)(F)F)nn1Cc1cc(C(F)(F)C(F)(F)F)nn1C [Compound 227]	30	70	10	60	90	95	70	70	100	40	100	0	40	80	80	20	70	30	40	10	Foxtail, Giant plant response rating (foxtail, giant [4]; [20]): 100; Corn plant response rating (corn [7]; [20]): 50; Barnyardgrass plant response rating (barnyardgrass [12]; [21]): 100; Foxtail, Giant plant response rating (foxtail, giant [14]; [18]): 70; Foxtail, Giant plant response rating (foxtail, giant [14]; [19]): 90; Crabgrass, Large plant response rating (0 to 100 scale) (crabgrass, large [15]): 100; Crabgrass, Large plant response rating (crabgrass, large [15]; [20]): 100; Plant response rating, Ducksalad (ducksalad): 100; Plant response rating, Rice (rice): 0; Pigweed plant response rating (pigweed [16]; [18]): 100; Pigweed plant response rating (pigweed [16]; [19]): 100; Pigweed plant response rating (0 to 100 scale) (pigweed [17]): 90
CCCNC(=O)c1cc(CC)n(Cc2cc(C(F)(F)C(F)(F)F)nn2C)n1 [Compound 229]	40	70	50	50	90	95	90	70	100	50	80	10	50	90	60	40	70	40	50	20	Foxtail, Giant plant response rating (foxtail, giant [4]; [20]): 100; Corn plant response rating (corn [7]; [20]): 50; Barnyardgrass plant response rating (barnyardgrass [12]; [21]): 100; Foxtail, Giant plant response rating (foxtail, giant [14]; [18]): 60; Foxtail, Giant plant response rating (foxtail, giant [14]; [19]): 90; Crabgrass, Large plant response rating (0 to 100 scale) (crabgrass, large [15]): 100; Crabgrass, Large plant response rating (crabgrass, large [15]; [20]): 100; Plant response rating, Ducksalad (ducksalad): 100; Plant response rating, Rice (rice): 40; Pigweed plant response rating (pigweed [16]; [18]): 90; Pigweed plant response rating (pigweed [16]; [19]): 100; Pigweed plant response rating (0 to 100 scale) (pigweed [17]): 100
CCONC(=O)c1cc(C)n(Cc2ccnc(C(F)(F)F)c2)n1 [Compound 231]	0	10	0	0	10	0	0	0	0	0	0	0	0	0	0	0	0	0	0	0	Morningglory plant response rating (morningglory [2]; [22]): 0; Foxtail, Giant plant response rating (foxtail, giant [4]; [23]): 0; Corn plant response rating (corn [7]; [23]): 0; Velvetleaf plant response rating (velvetleaf [11]; [22]): 0; Barnyardgrass plant response rating (barnyardgrass [12]; visual injury, approx. 10 days): 0; Wheat plant response rating (wheat [13]; [22]): 0; Foxtail, Giant plant response rating (foxtail, giant [14]; [18]): 0; Foxtail, Giant plant response rating (foxtail, giant [14]; [19]): 0; Crabgrass, Large plant response rating (0 to 100 scale) (crabgrass, large [15]): 0; Crabgrass, Large plant response rating (crabgrass, large [15]; [23]): 0; Plant response rating, Ducksalad (ducksalad): 0; Plant response rating, Rice (rice): 0; Pigweed plant response rating (pigweed [16]; [18]): 0; Pigweed plant response rating (pigweed [16]; [19]): 0; Pigweed plant response rating (0 to 100 scale) (pigweed [17]): 0; Pigweed plant response rating (pigweed [17]; [22]): 0
